ChEMBL document CHEMBL1201862, “PubChem BioAssay data set” (2004)
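Five compound concentrations were applied to cells in 96-well plates for 48 hours; endpoints were derived by simple linear interpolation of the resulting dose-response curve. At the GI50, growth is halved.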 Active and inactive are the calls of the source. Rule as the data show it: active = GI50 up to about 1.1 µM and inactive = higher.

Experiments:
Assay in all cases: growth of human tumour cells (NCI), 48 h
[1] = tested on: KM12
[2] = tested on: HCT-116
[3] = tested on: OVCAR-4
[4] = tested on: Malme-3M
[5] = tested on: MDA-N
[6] = tested on: MDA-MB-231
[7] = tested on: TK-10
[8] = tested on: HL-60
[9] = tested on: SK-MEL-2
[10] = tested on: HOP-92
[11] = tested on: MDA-MB-435
[12] = tested on: HCT-15
[13] = tested on: U-251
[14] = tested on: CAKI-1
[15] = tested on: SR
[16] = tested on: SK-MEL-5
[17] = tested on: M14
[18] = tested on: K562

Structure (SMILES) | GI50 [1] | GI50 [2] | GI50 [3] | GI50 [4] | GI50 [5] | GI50 [6] | GI50 [7] | GI50 [8] | GI50 [9] | GI50 [10] | GI50 [11] | GI50 [12] [µM] | GI50 [13] | GI50 [14] | GI50 [15] | GI50 [16] | GI50 [17] | GI50 [18]
CC(=O)Nc1cc(CN2CCCCC2)c(O)c2ncccc12 | 23.9 µM (inactive) | 20.9 µM (inactive) | 35.2 µM (inactive) | 22.9 µM (inactive) | 42 µM (inactive) | 15.8 µM (inactive) | 29 µM (inactive) | 14.5 µM (inactive) | 4.13 µM (inactive) | 49.5 µM (inactive) | 31.4 µM (inactive) | 6.01 | 17.1 µM (inactive) | 16.6 µM (inactive) | 8.75 µM (inactive) | 24.3 µM (inactive) | 15.4 µM (inactive) | 21.3 µM (inactive)
O=[N+]([O-])C(/C=C(\Cl)[N+](=O)[O-])=C(N1CCCCC1)N1CCCCC1 | > 100 µM (inactive) | 21.7 µM (inactive) | 23.9 µM (inactive) | 9.44 µM (inactive) | 22.4 µM (inactive) | 92 µM (inactive) | > 100 µM (inactive) | 20.1 µM (inactive) | 30 µM (inactive) | > 100 µM (inactive) | 16.7 µM (inactive) | 25.3 | 65 µM (inactive) | > 100 µM (inactive) | 14.1 µM (inactive) | 21.7 µM (inactive) | 20.1 µM (inactive) | 27 µM (inactive)
COc1ccc2cc(C(=O)NCCCNC(=O)c3ccc4cc(OC)ccc4c3)ccc2c1 | > 100 µM (inactive) | > 86.7 µM (inactive) | 61 µM (inactive) | > 100 µM (inactive) | > 100 µM (inactive) | 21.1 µM (inactive) | 45.4 µM (inactive) | > 100 µM (inactive) | > 75.3 µM (inactive) | 14.7 µM (inactive) | > 100 µM (inactive) | > 100 | 21.1 µM (inactive) | > 82.4 µM (inactive) | > 100 µM (inactive) | > 100 µM (inactive) | > 100 µM (inactive) | > 100 µM (inactive)
C[C@]12CCC(=O)C=C1C[C@@H](O)[C@@H]1[C@@H]2CC[C@@]2(C)[C@H]1CC[C@]2(C)O | > 100 µM (inactive) | > 100 µM (inactive) | > 100 µM (inactive) | > 100 µM (inactive) | > 100 µM (inactive) | > 100 µM (inactive) | > 100 µM (inactive) | > 100 µM (inactive) | > 100 µM (inactive) | > 100 µM (inactive) | > 100 µM (inactive) | > 100 | > 100 µM (inactive) | > 100 µM (inactive) | > 100 µM (inactive) | > 100 µM (inactive) | > 100 µM (inactive) | > 100 µM (inactive)
COc1ccc([C@]23CCN4COC[C@@H]([C@H]42)C2(CC3)OCC(C)(C)CO2)cc1OC | > 100 µM (inactive) | > 100 µM (inactive) | > 100 µM (inactive) | > 100 µM (inactive) | > 100 µM (inactive) | > 100 µM (inactive) | > 100 µM (inactive) | > 100 µM (inactive) | > 100 µM (inactive) | 31.3 µM (inactive) | > 100 µM (inactive) | > 100 | > 100 µM (inactive) | > 100 µM (inactive) | > 100 µM (inactive) | > 100 µM (inactive) | > 100 µM (inactive) | > 100 µM (inactive)
CC1CCC2C(C)(C)CC3(C)CCC1C23O (stereo not drawn) | 15.5 µM (inactive) | 14.8 µM (inactive) | 22.1 µM (inactive) | 13.3 µM (inactive) | 12.7 µM (inactive) | 16.2 µM (inactive) | 17.7 µM (inactive) | 1.63 µM (inactive) | 14.1 µM (inactive) | 13.3 µM (inactive) | 15.6 µM (inactive) | 16.9 | 16 µM (inactive) | 14.2 µM (inactive) | 12.3 µM (inactive) | 14.6 µM (inactive) | 16 µM (inactive) | 12.4 µM (inactive)
O=[N+]([O-])CC(SCc1ccccc1)c1ccc2c(c1)OCO2 (stereo not drawn) | 6.84 µM (inactive) | 1.69 µM (inactive) | 13.2 µM (inactive) | 14.9 µM (inactive) | 2.45 µM (inactive) | 10.3 µM (inactive) | 10.8 µM (inactive) | 1.58 µM (inactive) | 21.1 µM (inactive) | 3.79 µM (inactive) | 2.5 µM (inactive) | 3.84 | 6.59 µM (inactive) | 14.2 µM (inactive) | 3.13 µM (inactive) | 12.2 µM (inactive) | 5.6 µM (inactive) | 1.55 µM (inactive)
CN1C2CCC1CC(CCOC(c1ccc(F)cc1)c1ccc(F)cc1)C2 (stereo not drawn) | 14.8 µM (inactive) | 12.7 µM (inactive) | 17.4 µM (inactive) | 15.1 µM (inactive) | 14.5 µM (inactive) | 16.2 µM (inactive) | 15.3 µM (inactive) | 16.1 µM (inactive) | 16.9 µM (inactive) | 15.7 µM (inactive) | 12.4 µM (inactive) | 16.9 | 14.9 µM (inactive) | 16.3 µM (inactive) | 14.8 µM (inactive) | 9.23 µM (inactive) | 16.4 µM (inactive) | 12.4 µM (inactive)
COc1cc(C2c3cc4c(cc3OC(NNS(=O)(=O)c3ccc(C)cc3)C2C)OCO4)cc(OC)c1OC (stereo not drawn) | 1.26 µM (inactive) | 1.29 µM (inactive) | 7.59 µM (inactive) | 3.04 µM (inactive) | 0.289 µM (active) | 4.24 µM (inactive) | 6.7 µM (inactive) | 0.5 µM (active) | 0.984 µM (active) | 2 µM (inactive) | 0.294 µM (active) | 1.29 | 2.14 µM (inactive) | 1.68 µM (inactive) | 0.839 µM (active) | 0.883 µM (active) | 0.776 µM (active) | 0.55 µM (active)
C=CCCCCNC(=O)C[C@@H]1C2=C(CC[C@H]1O[Si](C)(C)C(C)(C)C)N1C(=O)CCC/C=C\C1C2 (stereo partly drawn) | 15 µM (inactive) | 13.3 µM (inactive) | 12.2 µM (inactive) | 14.7 µM (inactive) | 16.3 µM (inactive) | 13.3 µM (inactive) | 16.1 µM (inactive) | 1.84 µM (inactive) | 13.2 µM (inactive) | 11 µM (inactive) | 14.6 µM (inactive) | 14 | 13.5 µM (inactive) | 12.4 µM (inactive) | 5.75 µM (inactive) | 14.1 µM (inactive) | 14.3 µM (inactive) | 5.3 µM (inactive)
c1ccc(CN2CCC(=NN3CCCCC3)CC2)cc1 | 78.3 µM (inactive) | 64.1 µM (inactive) | > 100 µM (inactive) | > 100 µM (inactive) | 83 µM (inactive) | 43.3 µM (inactive) | 86.7 µM (inactive) | 20.1 µM (inactive) | > 100 µM (inactive) | 16.2 µM (inactive) | 72.8 µM (inactive) | > 100 | 59.6 µM (inactive) | > 100 µM (inactive) | 34.4 µM (inactive) | 30.3 µM (inactive) | > 100 µM (inactive) | 31.1 µM (inactive)
